Values of other authors as cited in US20250312496A1, “PROSTATE SPECIFIC MEMBRANE ANTIGEN (PSMA) LIGANDS” (Deutsches Krebsforschungszentrum Stiftung des öffentlichen …, priority 2022, published 2025).

System: prostate cancer

Structure (SMILES): O=C(O)CC[C@H](NC(=O)N[C@@H](CCCCNC(=O)[C@H](Cc1ccc2ccccc2c1)NC(=O)[C@H]1CC[C@H](CNC(=O)CN2CCN(CC(=O)O)CCN(CC(=O)O)CCN(CC(=O)O)CC2)CC1)C(=O)O)C(=O)O [225Ac-PSMA-617, metal not drawn]
- PSA value (both patients): fell below the detectability limit
- response of patients (two patients with extremely advanced and end-stage disease): complete remission
